Patent publication US6881553B2 (priority 1999, dated 2005)
pKi: −log10 of the molar value. Values after ≈ are worked out from the molar mass of the structure shown. Values joined by “and” are separate entries in the source; they are usually repeats but may differ in a detail not shown here. Equal entries are not always repeated. “Also recorded” adds a separate entry of the source. Where two headings read alike, the source gives them in different places.

Columns and labels:
[1] = target: L. pneumophila FabX enoyl reductase (His-tagged FabX); assay type: biochemical; settings: competitive with regard to DCA (dodecenoyl-CoA) substrate; 100 μM NADH, 100 mM NaPO4 pH 7.4; value (+/- spread)
[2] = target: L. pneumophila FabT enoyl reductase (His-tagged FabT) (Legionella pneumophila, UniProt Q5ZUE4); experiment: biochemical
[3] = target: M. tuberculosis InhA enoyl reductase (Mycobacterium tuberculosis, UniProt P9WGR1); experiment: biochemical
L. pneumophila [4] = settings: cited from earlier work
[5] = test system: L. pneumophila Philadelphia 1; experiment: microbe, parasite or virus in culture; assay type: cell-based, Legionella pneumophila; settings: for MIC90: Legionella pneumophila, 48 h, read-out: MIC which inhibited 90% of L. pneumophila growth (MIC90)
[6] = test system: L. pneumophila in PMA-differentiated HL-60 cells; assay type: cell-based, Legionella pneumophila
[7] = test system: L. pneumophila in human monocyte-derived macrophages; assay type: cell-based, Legionella pneumophila
[8] = Solubility observations in media; assay type: physicochemical; settings: aqueous medium
Legionella sp. strains = assay type: cell-based
bacterial species = assay type: cell-based
Nocardia sp. = assay type: cell-based
atypical mycobacteria = experiment: Zone of inhibition assay; assay type: cell-based; settings: standard laboratory media
Pseudomonas aeruginosa = assay type: cell-based
M. tuberculosis strains [9] = experiment: M. tuberculosis susceptibility assay on Middlebrook agar; assay type: cell-based, Mycobacterium tuberculosis; settings: 27 strains, OADC Middlebrook agar, three weeks 37° C.
M. tuberculosis strains [10] = experiment: M. tuberculosis 7H9 broth assay; assay type: cell-based, Mycobacterium tuberculosis; settings: 21 days, turbidity
L. pneumophila [11] = assay type: cell-based, Legionella pneumophila; settings: GFZ 30 μg/ml, three days on CYE agar
[12] = test system: L. pneumophila Philadelphia 1; experiment: microbe, parasite or virus in culture; assay type: cell-based, Legionella pneumophila; settings: for inhibition of 14C-acetate incorporation: 0.5 mM
L. pneumophila F4b [13] = experiment: microbe, parasite or virus in culture; assay type: cell-based; settings: Legionella pneumophila, read-out: concentration giving 50% inhibition of 14C-acetate incorporation
L. pneumophila lysates = assay type: biochemical, Legionella pneumophila; settings: for inhibition of 14C-acetate incorporation, lysates compared with whole cells: 0.4 mM or 2.0 mM
[14] = test system: Listeria monocytogenes in mouse J774 macrophage-like cells; settings: GFZ in combination with norfloxacin; cited from earlier work
J774 cells = settings: treatment of J774 cells with GFZ; cited from earlier work
[15] = mouse, in vivo; cited from earlier work
Saccharomyces cerevisiae = experiment: Zone of inhibition assay on SAB medium
Candida albicans = experiment: Zone of inhibition assay on SAB medium
L. pneumophila FabX = assay type: biochemical, Legionella pneumophila; settings: dodecenoyl-CoA substrate, 100 μM NADH, pH 7.4
L. pneumophila FabT = assay type: biochemical, Legionella pneumophila; settings: dodecenoyl-CoA substrate, 100 μM NADH, pH 7.4
M. tuberculosis InhA = M. tuberculosis InhA (Mycobacterium tuberculosis, UniProt P9WGR1); settings: pH 7.4
[16] = test system: L. pneumophila Philadelphia 1; assay type: cell-based, Legionella pneumophila; settings: disks 2.5 mg or 1.0 mg, BCYE plates, four days
L. pneumophila F4b [17] = assay type: cell-based, Legionella pneumophila; settings: disks 2.5 mg or 1.0 mg, BCYE plates, four days
L. pneumophila [18] = settings: cited from earlier work; remark: listed apart in the source

Chain of L. pneumophila FabT enoyl reductase (His-tagged FabT) (Q5ZUE4 1-268): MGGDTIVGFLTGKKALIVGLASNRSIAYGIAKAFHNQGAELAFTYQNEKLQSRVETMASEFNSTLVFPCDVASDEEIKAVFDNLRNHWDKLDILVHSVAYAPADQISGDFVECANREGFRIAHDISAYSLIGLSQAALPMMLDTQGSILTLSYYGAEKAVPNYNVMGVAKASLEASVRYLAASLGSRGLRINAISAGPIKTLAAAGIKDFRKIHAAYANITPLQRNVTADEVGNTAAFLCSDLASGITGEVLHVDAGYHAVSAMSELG
Chain of M. tuberculosis InhA enoyl reductase (P9WGR1 whole entry, looked up): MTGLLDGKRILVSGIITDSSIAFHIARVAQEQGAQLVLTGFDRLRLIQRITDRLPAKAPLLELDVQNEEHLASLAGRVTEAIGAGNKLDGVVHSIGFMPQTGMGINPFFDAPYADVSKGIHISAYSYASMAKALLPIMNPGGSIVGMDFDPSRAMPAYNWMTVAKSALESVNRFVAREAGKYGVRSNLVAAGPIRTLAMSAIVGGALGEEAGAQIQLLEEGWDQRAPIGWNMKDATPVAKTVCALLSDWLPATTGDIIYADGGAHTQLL
Chain of M. tuberculosis InhA (P9WGR1 whole entry, looked up): as above

Cc1ccc(C)c(OCCCC(C)(C)C(=O)SCCNC(=O)CCNC(=O)[C@H](O)C(C)(C)COP(=O)(O)OP(=O)(O)OC[C@H]2O[C@@H](n3cnc4c(N)ncnc43)[C@H](O)[C@@H]2OP(=O)(O)O)c1 [GFZ]
pKi [1]: 3.91 | pKi [2]: 3.90 | pKi [3]: 3.68

CC[C@H]1OC(=O)[C@H](C)[C@@H](O[C@H]2C[C@@](C)(OC)[C@@H](O)[C@H](C)O2)[C@H](C)[C@@H](O[C@@H]2O[C@H](C)C[C@H](N(C)C)[C@H]2O)[C@](C)(O)C[C@@H](C)C(=O)[C@H](C)[C@@H](O)[C@]1(C)O [erythromycin]
concentration inhibiting extracellular growth (L. pneumophila [4]): 0.2 µg/mL

Cc1ccc(C)c(OCCCC(C)(C)C(=O)O)c1 [GFZ, gemfibrozil]
bacteriostatic or bacteriocidal effect ([5]; 10-200 μg/ml, aliquots of MIC cultures plated on CYE): bacteriostatic | MIC90 [5]: 10 µg/mL (≈ 39.9 µM) | L. pneumophila intracellular growth ([6]; GFZ 0.4 mM (100 μg/ml)): inhibition of L. pneumophila intracellular growth | concentration required to inhibit intracellular growth within macrophages ([6]; macrophages): 100 µg/mL | time after infection at which inhibition of bacterial growth was seen ([6]; single-round growth assay with gentamicin, GFZ 0.4 mM (100 μg/ml)): ≤ 8 h | intracellular growth of L. pneumophila in human macrophages ([7]; 0.4 mM (100 μg/ml)): inhibited the intracellular growth | intracellular growth of L. pneumophila in human macrophages ([7]; 0.6 mM compared with 0.4 mM): no further reduction in L. pneumophila colonies | solubility in relation to pH [8]: insoluble at an acid pH; also recorded: decreases as pH decreases | sensitivity of Legionella sp. strains (zone of inhibition) (Legionella sp. strains): All 39 Legionella sp. strains were sensitive | sensitivity of nonpathogenic bacterial strains (bacterial species): four of the eight strains tested demonstrated sensitivity | share of bacterial species tested that demonstrated susceptibility (bacterial species): 33% | zone of inhibition (Nocardia sp.): 40-60 mm | susceptibility (atypical mycobacteria): resistant | growth inhibition (Pseudomonas aeruginosa): did not inhibit the growth | concentration that completely inhibited growth of all M. tuberculosis strains (M. tuberculosis strains [9]): 100 to 200 µg/mL | growth of M. tuberculosis strains in 7H9 broth (M. tuberculosis strains [10]): inhibits the growth | change in amount of 3-HB-propyl ester (L. pneumophila [11]): fifty-fold increase | IC50 ([12]; Legionella pneumophila, 0.25 h, read-out: concentration giving fifty percent inhibition of 14C-acetate incorporation): 25 µg/mL (≈ 99.9 µM) | IC50 ([12]; Legionella pneumophila, 1 h, read-out: concentration giving 50% inhibition of 14C-acetate incorporation): 10 µg/mL and 40 µM | IC50 ([12]; Legionella pneumophila, read-out: concentration giving 50% inhibition of 14C-acetate incorporation): 100 µM and 25 µg/mL | inhibition at 400 µM ([12]; Legionella pneumophila, read-out: inhibition of 14C-acetate incorporation into TCA precipitable material in whole cells): > 90% | lowest concentration that inhibited 14C-acetate incorporation ([12]; within 15 minutes): 10 µg/mL | IC50 (L. pneumophila F4b [13]): 100 µg/mL and 400 µM | inhibition of 14C-acetate incorporation into TCA precipitable material in a lysate (L. pneumophila lysates; 0.4 mM): 15% | inhibition of 14C-acetate incorporation, lysates compared with whole cells (L. pneumophila lysates): not as effective an inhibitor in these lysates as it was in whole cells | inhibition of 14C-acetate incorporation in lysate, comparison between inhibitors (L. pneumophila lysates; 2 mM): not as potent as cerulenin in lysates | viability of uninfected HL-60 cells (HL-60 cells): did not affect the viability | protection of infected HL-60 cells from L. pneumophila cytolytic effects (HL-60 cells; 100 μg/ml, infection multiplicity of 0.1 bacteria/cell, 5 days): protected infected HL-60 cells | reduction of the norfloxacin concentration required to block intracellular growth [14]: fourfold | increase of intracellular concentration of norfloxacin (J774 cells): fourfold | LD50 [15]: 250 mg/20 gm mouse per day | susceptibility (Saccharomyces cerevisiae; SAB medium buffered to pH 7): susceptible | zone of inhibition (Saccharomyces cerevisiae; unbuffered medium): No zone of inhibition | susceptibility (Candida albicans; SAB medium buffered to pH 7): susceptible | zone of inhibition (Candida albicans; unbuffered medium): No zone of inhibition

Cc1ccc(C)c(OCCCC(C)(C)C(=O)SCCNC(=O)CCNC(=O)[C@H](O)C(C)(C)COP(=O)(O)OP(=O)(O)OC[C@H]2O[C@@H](n3cnc4c(N)ncnc43)[C@H](O)[C@@H]2OP(=O)(O)O)c1 [GFZ-CoA]
mode of inhibition of enoyl reductase activity (L. pneumophila FabX): competitive inhibitor | mode of inhibition of enoyl reductase activity (L. pneumophila FabT): competitive inhibitor | mode of inhibition of enoyl reductase activity (M. tuberculosis InhA): competitive inhibitor

CCOC(=O)C(C)(C)Oc1ccc(Cl)cc1 [clofibrate]
MIC which inhibited 90% of L. pneumophila growth (MIC90) ([5]; AYE broth, 48 hrs at 37° C.): 100 µg/mL | effectiveness at inhibiting intracellular growth relative to GFZ [7]: much less effective than GFZ | intracellular growth of L. pneumophila in human macrophages ([7]; 1 mM): able to slow L. pneumophila growth | inhibition of 14C-acetate incorporation [12]: some efficacy

O=C(O)c1ccccc1O [2-hydroxybenzoic acid]
antibacterial activity by zone of inhibition [16]: more sensitive to 2-hydroxybenzoic acid (salicylic acid) than GFZ | antibacterial activity by zone of inhibition (L. pneumophila F4b [17]): more sensitive to 2-hydroxybenzoic acid (salicylic acid) than GFZ | inhibition of 14C-acetate incorporation [12]: some efficacy

O=C(O)CCc1ccc(O)cc1 [Analog 4-HPA, 4-hydroxyphenylpropionic acid]
antibacterial activity by zone of inhibition [16]: equally inhibitory | antibacterial activity by zone of inhibition (L. pneumophila F4b [17]): equally inhibitory

CO[C@H]1/C=C/O[C@@]2(C)Oc3c(C)c(O)c4c(O)c(c(/C=N/N5CCN(C)CC5)c(O)c4c3C2=O)NC(=O)/C(C)=C\C=C\[C@H](C)[C@H](O)[C@@H](C)[C@@H](O)[C@@H](C)[C@H](OC(C)=O)[C@@H]1C [rifampin]
concentration inhibiting extracellular growth (L. pneumophila [4]): 0.002 µg/mL | concentration inhibiting intracellular growth (L. pneumophila [18]): 0.1 µg/mL

Nc1ccc(C(=O)O)c(O)c1 [P-aminosalicyclic acid, para-aminosalicylate]
inhibition of 14C-acetate incorporation [12]: some efficacy

CC(C)(Oc1ccc(CCNC(=O)c2ccc(Cl)cc2)cc1)C(=O)O [bezafibrate]
MIC90 [5]: 250 µg/mL (≈ 691 µM)

O=C(O)CCc1ccc(O)c(O)c1 [3,4-HPA, 3,4-dihydroxyphenyl propionic acid]
antibacterial activity by zone of inhibition [16]: equally inhibitory | antibacterial activity by zone of inhibition (L. pneumophila F4b [17]): equally inhibitory

C/C=C/C/C=C/CCC(=O)[C@H]1O[C@H]1C(N)=O [Cerulenin, cerulenin]
inhibition of 14C-acetate incorporation relative to GFZ at 100 μg/ml ([12]; 100 μg/ml (0.45 mM)): slightly better inhibitor | inhibition of 14C-acetate incorporation, lysates compared with whole cells (L. pneumophila lysates): less effective inhibitor
